Experimental data from patent publication US20170210741A1, “Benzimidazole Compounds, Use As Inhibitors of WNT Signaling Pathway in Cancers, and Methods for Preparation Thereof” (Southern Research Institute, priority 2016, published 2017).
Where two headings read alike, the source gives them in different places.

Experiments:
Assay type in all cases: cell-based
Wnt signaling = Wnt signaling reporter assay (Super8XTOPFlash luciferase) in LRP6-expressing HEK293 cells; settings: Homo sapiens, 24 h treatment, luciferase normalized to β-galactosidase, read-out: IC50 (effects on Wnt signaling)
Protocol: HEK293 cells were plated into 24-well plates. After overnight culture, the cells were transiently transfected with 0.06 μg of the Super8XTOPFlash luciferase construct, 0.06 μg of β-galactosidase-expressing vector, and 0.06 μg of pCS-Myc-hLRP6 or control vector. After 24 h incubation, cells were treated with each individual compound in triplicate for 24 h. Cells were then lysed, and the luciferase and β-galactosidase activities were determined by the luciferase assay system (Promega) and β-galactosidase assay system (Promega), respectively. The luciferase activity was normalized to the β-galactosidase activity.
Table 2 below illustrates the effects of the disclosed compounds on Wnt signaling in LRP6-expressing HEK293 cells.

PANC-1 = experiment: In vitro cell viability assay (Cell Titer Glo), pancreatic cancer PANC-1; settings: Homo sapiens, 72 h
Protocol: (§1) Breast cancer SUM159 was obtained from Asterand and grown according to supplier's recommendation. All other cell lines were obtained from ATCC and cultured in standard cell culture conditions with complete cell culture medium containing 10% FBS.
(§2) Cancer cells were seeded into optically clear tissue culture-treated black 96-well plates (for adherent cells) or low-attachment 96-well plates (for cancer stem cells) at 2,000-5000 cells/50 μL of media per well. The cells were treated with Wnt inhibitors at 0.1 to 10 μM for 72 h. Cell viability was measured by the Cell Titer Glo Assay from Promega.

Suit-2 = experiment: In vitro cell viability assay (Cell Titer Glo), pancreatic cancer Suit-2; settings: 72 h
Protocol: as §1, §2

S2VP10 = experiment: In vitro cell viability assay (Cell Titer Glo), pancreatic cancer S2VP10; settings: 72 h
Protocol: as §1, §2

HCT116 = experiment: In vitro cell viability assay (Cell Titer Glo), colorectal cancer HCT116; settings: Homo sapiens, HCT-116, 72 h
Protocol: as §1, §2
(§3) Table 4 below illustrates the effects of the disclosed compounds on cell viability of colorectal cancer cell lines.

HT-29 = experiment: In vitro cell viability assay (Cell Titer Glo), colorectal cancer HT-29; settings: Homo sapiens, 72 h
Protocol: as §1, §2, §3

L3.6pl = experiment: In vitro cell viability assay (Cell Titer Glo), pancreatic cancer L3.6pl; settings: Homo sapiens, 72 h
Protocol: as §1, §2

2LMP = experiment: In vitro cell viability assay (Cell Titer Glo), breast cancer 2LMP; settings: 72 h
Protocol: as §1, §2
(§4) Table 5 below illustrates the effects of the disclosed compounds on cell viability of breast cancer cell lines.

HCC1143 = experiment: In vitro cell viability assay (Cell Titer Glo), breast cancer HCC1143; settings: Homo sapiens, 72 h
Protocol: as §1, §2, §4

MDA-MB-468 = experiment: In vitro cell viability assay (Cell Titer Glo), breast cancer MDA-MB-468; settings: Homo sapiens, 72 h
Protocol: as §1, §2, §4

SUM159 = experiment: In vitro cell viability assay (Cell Titer Glo), breast cancer SUM159; settings: 72 h
Protocol: as §1, §2, §4

[1] = PANC-1, adherent, complete medium 10% FBS, read-out: Cell viability (IC50) PANC-1 Adherent
[2] = PANC-1, cancer stem cell (CSC) enriching serum free medium, non-adherent plates, read-out: Cell viability (IC50) PANC-1 CSC
[3] = Suit-2, CSC enriching serum free medium, non-adherent plates, read-out: Cell viability (IC50) Suit-2 CSC
[4] = Suit-2, adherent, complete medium 10% FBS, read-out: Cell viability (IC50) Suit-2 Adherent
[5] = S2VP10, CSC enriching serum free medium, non-adherent plates, read-out: Cell viability (IC50) S2VP10 CSC
[6] = S2VP10, adherent, complete medium 10% FBS, read-out: Cell viability (IC50) S2VP10 Adherent
[7] = HCT116, CSC conditions, read-out: Cell viability (IC50) HCT116 CSC
[8] = HCT116, adherent, read-out: Cell viability (IC50) HCT116 Adherent
[9] = HT-29, CSC conditions, read-out: Cell viability (IC50) HT-29 CSC
[10] = HT-29, adherent, read-out: Cell viability (IC50) HT-29 Adherent
[11] = CSC enriching serum free medium, non-adherent plates, read-out: Cell viability (IC50) L3.6pl CSC
[12] = adherent, complete medium 10% FBS, read-out: Cell viability (IC50) L3.6pl Adherent
[13] = CSC conditions, read-out: Cell viability (IC50) 2LMP CSC
[14] = adherent, read-out: Cell viability (IC50) 2LMP Adherent
[15] = HCC1143, CSC conditions, read-out: Cell viability (IC50) HCC1143 CSC
[16] = HCC1143, adherent, read-out: Cell viability (IC50) HCC1143 Adherent
[17] = MDA-MB-468, CSC conditions, read-out: Cell viability (IC50) MDA-MB-468 CSC
[18] = MDA-MB-468, adherent, read-out: Cell viability (IC50) MDA-MB-468 Adherent
[19] = SUM159, CSC conditions, read-out: Cell viability (IC50) SUM159 CSC
[20] = SUM159, adherent, read-out: Cell viability (IC50) SUM159 Adherent

IC50 (PANC-1; [1])	IC50 (PANC-1; [2])	IC50 (Suit-2; [3])	IC50 (Suit-2; [4])	IC50 (S2VP10; [5])	IC50 (S2VP10; [6])	IC50 (HCT116; [7])	IC50 (HCT116; [8])	IC50 (HT-29; [9])	IC50 (HT-29; [10])	IC50 (L3.6pl; [11])	IC50 (2LMP; [13])	IC50 (2LMP; [14])	IC50 (HCC1143; [15])	IC50 (HCC1143; [16])	IC50 (MDA-MB-468; [17])	IC50 (MDA-MB-468; [18])	IC50 (SUM159; [19])	IC50 (SUM159; [20])	SMILES	IC50 (Wnt signaling)	other results
1.74 µM	0.21 µM	2.84 µM	9.13 µM	0.92 µM	1.62 µM	–	–	–	–	–	–	–	–	–	–	–	–	–	Oc1ccc(F)cc1-c1nc2c(Cl)cc(Cl)cc2[nH]1 [Compound 1, 2-(4,6-Dichloro-1H-benzo[d]imidazol-2-yl)-4-fluorophenol]	1.34 µM	–
2.32 µM	0.41 µM	1.81 µM	3.76 µM	0.33 µM	1.1 µM	0.18 µM	1.61 µM	3.09 µM	6.47 µM	–	–	–	–	–	–	–	–	–	Oc1ccc(F)cc1-c1nc2cc(Cl)c(F)cc2[nH]1 [Compound 3, 2-(5-Chloro-6-fluoro-1H-benzo[d]imidazol-2-yl)-4-fluorophenol]	2.8 µM	–
4.47 µM	0.3 µM	0.61 µM	5.21 µM	0.77 µM	3.88 µM	–	–	–	–	0.66 µM	13 µM	16.8 µM	0.7 µM	4.5 µM	0.16 µM	1.29 µM	0.9 µM	1.13 µM	FC(F)(F)c1ccc(-c2nc3c(Cl)cc(Cl)cc3[nH]2)cc1 [Compound 7, 4,6-Dichloro-2-(4-(trifluoromethyl)phenyl)-1H-benzo[d]imidazole]	6.01 µM	IC50 (L3.6pl; [12]): 0.57 µM
1.33 µM	0.18 µM	1.15 µM	3.16 µM	0.21 µM	1.04 µM	–	–	–	–	–	0.92 µM	1.15 µM	0.5 µM	1.19 µM	0.17 µM	1.41 µM	0.34 µM	0.5 µM	Oc1c(Cl)cccc1-c1nc2cc(C(F)(F)F)ccc2[nH]1 [Compound 5, 2-Chloro-6-(5-(trifluoromethyl)-1H-benzo[d]imidazol-2-yl)phenol]	2.77 µM	–
> 10 µM	1.06 µM	0.84 µM	8.92 µM	0.77 µM	4.86 µM	–	–	–	–	0.62 µM	–	–	–	–	–	–	–	–	FC(F)(F)Oc1ccc(-c2nc3c(Cl)cc(Cl)cc3[nH]2)cc1 [Compound 8, 4,6-Dichloro-2-(4-(trifluoromethoxy)phenyl)-1H-benzo[d]imidazole]	7.92 µM	IC50 (L3.6pl; [12]): 1.19 µM
–	–	> 10 µM	2.1 µM	> 10 µM	2.58 µM	2.68 µM	1.18 µM	0.51 µM	0.84 µM	–	–	–	–	–	–	–	–	–	Clc1cc2nc(-c3ccc(N4CCCC4)cc3)[nH]c2cc1Cl [Compound 12, 5,6-dichloro-2-(4-(pyrrolidin-1-yl)phenyl)-1H-benzo[d]imidazole]	0.00093 µM	–
3.44 µM	0.57 µM	0.56 µM	2.12 µM	0.59 µM	2.57 µM	1.61 µM	3.84 µM	0.86 µM	4.38 µM	0.93 µM	2.9 µM	3.84 µM	1.3 µM	3.18 µM	0.33 µM	3.83 µM	1.17 µM	1.67 µM	FC(F)(F)Oc1ccc(-c2nc3cc(Cl)c(Cl)cc3[nH]2)cc1 [Compound 6, 5,6-Dichloro-2-(4-(trifluoromethoxy)phenyl)-1H-benzo[d]imidazole]	0.19 µM	–
